Activity calls are given as the source filed them. No cut-off for these calls is given here.
Legend:
[1] = target: T1, Peroxisome proliferator-activated receptor gamma (Homo sapiens) (UniProt P37231); assay: Binding affinity to Gal4-fused PPARgamma LBD (unknown origin) expressed in Escherichia coli DH5alpha cell lysates at 4 equiv in presence of ADIBO-fluorescein by Coomassie Brilliant Blue staining method
T1 sequence (whole entry): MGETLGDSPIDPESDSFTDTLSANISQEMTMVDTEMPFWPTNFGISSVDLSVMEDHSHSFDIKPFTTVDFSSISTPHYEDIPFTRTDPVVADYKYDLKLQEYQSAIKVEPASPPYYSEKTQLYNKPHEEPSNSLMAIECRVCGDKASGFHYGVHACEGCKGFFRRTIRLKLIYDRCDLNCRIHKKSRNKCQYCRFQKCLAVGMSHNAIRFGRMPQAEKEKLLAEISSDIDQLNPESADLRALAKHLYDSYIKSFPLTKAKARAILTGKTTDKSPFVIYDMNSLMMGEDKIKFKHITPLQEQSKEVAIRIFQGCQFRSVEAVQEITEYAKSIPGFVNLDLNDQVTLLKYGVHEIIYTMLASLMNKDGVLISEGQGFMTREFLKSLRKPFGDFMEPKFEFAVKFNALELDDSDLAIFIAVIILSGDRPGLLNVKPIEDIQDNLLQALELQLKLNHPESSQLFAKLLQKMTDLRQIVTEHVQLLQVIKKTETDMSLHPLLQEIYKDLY

[2] = target: T1, Peroxisome proliferator-activated receptor gamma (Homo sapiens); assay: Binding affinity to Gal4-fused human PPARgamma LBD (204 to 477 residues) assessed as covalent modification at 100 uM after 24 hrs in presence of methyl N-((3E,5E)-16-azido-2-oxohexadeca-3,5-dien-1-yl)-N-tosylglycinate by ESI-mass analysis
[3] = target: T1, Peroxisome proliferator-activated receptor gamma (Homo sapiens); assay: Binding affinity to Gal4-fused human PPARgamma LBD (204 to 477 residues) assessed as covalent modification at 100 uM after 24 hrs in presence of methyl N-((3E,5E)-2-oxohexadeca-3,5-dien-1-yl)-N-tosylglycinate by ESI-mass analysis
[4] = target: T1, Peroxisome proliferator-activated receptor gamma (Homo sapiens); assay: Transactivation at human Gal4-fused PPARgamma LBD expressed in African green monkey COS7 cells by dual luciferase assay; format: cell-based
[5] = target: T1, Peroxisome proliferator-activated receptor gamma (Homo sapiens); assay: Binding affinity to Gal4-fused human PPARgamma LBD (204 to 477 residues) assessed as labeling efficiency at 100 uM after 12 hrs by ESI-mass analysis
[6] = target: T1, Peroxisome proliferator-activated receptor gamma (Homo sapiens); assay: Binding affinity to Gal4-fused PPARgamma LBD (unknown origin) expressed in Escherichia coli DH5alpha cell lysates in presence of ADIBO-fluorescein by SDS-PAGE analysis
[7] = target: T1, Peroxisome proliferator-activated receptor gamma (Homo sapiens); assay: Binding affinity to Gal4-fused PPARgamma LBD (unknown origin) expressed in Escherichia coli DH5alpha cell lysates at 4 equiv in presence of ADIBO-fluorescein by SDS-PAGE analysis
[8] = target: T1, Peroxisome proliferator-activated receptor gamma (Homo sapiens); assay: Binding affinity to Gal4-fused PPARgamma LBD (unknown origin) expressed in Escherichia coli DH5alpha cell lysates at 4 equiv in presence of ADIBO-fluorescein by silver staining method
[9] = target: T1, Peroxisome proliferator-activated receptor gamma (Homo sapiens); assay: Binding affinity to Gal4-fused human PPARgamma LBD (204 to 477 residues) assessed as covalent modification at 100 uM after 24 hrs by ESI-mass analysis
[10] = target: T2, Peroxisome proliferator-activated receptor gamma (Mus musculus) (UniProt P37238); assay: Binding affinity to Gal4-fused PPARgamma LBD in mouse 3T3-L1 cells assessed in presence of ADIBO-fluorescein; format: cell-based
T2 sequence (whole entry): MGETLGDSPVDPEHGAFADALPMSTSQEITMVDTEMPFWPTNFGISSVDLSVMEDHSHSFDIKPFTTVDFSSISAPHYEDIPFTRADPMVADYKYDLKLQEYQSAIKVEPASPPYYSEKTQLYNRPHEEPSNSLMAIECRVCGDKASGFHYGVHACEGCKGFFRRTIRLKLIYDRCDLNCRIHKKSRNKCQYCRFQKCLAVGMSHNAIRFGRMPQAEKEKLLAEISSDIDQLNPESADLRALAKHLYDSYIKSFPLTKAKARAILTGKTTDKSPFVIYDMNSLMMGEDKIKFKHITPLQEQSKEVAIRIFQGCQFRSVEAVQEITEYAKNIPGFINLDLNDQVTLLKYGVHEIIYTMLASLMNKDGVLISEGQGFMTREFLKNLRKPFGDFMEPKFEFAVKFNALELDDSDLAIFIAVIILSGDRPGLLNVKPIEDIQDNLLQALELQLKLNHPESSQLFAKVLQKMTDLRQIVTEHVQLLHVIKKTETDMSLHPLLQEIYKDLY

[11] = target: T1, Peroxisome proliferator-activated receptor gamma (Homo sapiens); assay: Binding affinity to human Gal4-fused PPARgamma LBD expressed in African green monkey COS7 cells assessed in presence of ADIBO-fluorescein; format: cell-based

In the case of `O=C(O)c1cc(NC(=S)NCCCCCC(=O)N2Cc3ccccc3C#Cc3ccccc32)ccc1-c1c2ccc(=O)cc-2oc2cc(O)ccc12`, the Activity [1] is reported as “Active”.
`O=C(CCCCCNC(=O)C(F)(F)F)N1Cc2ccccc2C#Cc2ccccc21` was tested, and the Activity [2] was “Active” and the Activity [3] was “inactive”.
In the case of `CCCCCCCCCC/C=C/C=C/C(=O)CN(CC(=O)OC)S(=O)(=O)c1ccc(C)cc1`, the Activity [4] is reported as “Dose-dependent effect”.
With `Cc1ccc(S(=O)(=O)N(CC(=O)O)CC(=O)/C=C/C=C/CCCCCCCCCCn2nnc3c2-c2ccccc2CN(C(=O)CCCCCNC(=O)C(F)(F)F)c2ccccc2-3)cc1` the Activity [5] was “Active”.
With `COC(=O)CN(CC(=O)/C=C/C=C/CCCCCCCCCCN=[N+]=[N-])S(=O)(=O)c1ccc(C)cc1` the Activity [6] was “Dose-dependent effect”, the Activity [1] was “Active” and the Activity [7] was “Active”. For the same compound, the Activity [8] was “Active”, the Activity [9] was “Active” and the Activity [10] was “inactive”. For the same compound, the Activity [5] was “Active”, the Activity [11] was “inactive” and the Activity [4] was “Dose-dependent effect”.
